Patent US20240400521A1, “QUINAZOLINE COMPOUND, COMPOSITION, AND APPLICATION THEREOF” (BEIJING SCITECH-MQ PHARMACEUTICALS LIMITED, priority 2021, published 2024)

Biological target: T1, HER2 kinase (Homo sapiens, UniProt P04626)
T1 construct: purchased Carna Biosciences 08-016
Assay: HER2 kinase assay (ULight peptide / Eu-PT66 antibody detection)
Format: biochemical
From the text: Reagents and consumables: ULight™-labeled Ploy GT Peptide (Perkin Elmer, Cat. No. TRF-0100-M); ULight™-labeled JAK-1 (Try1023) Peptide (Perkin Elmer, Cat. No. TRF-0121-M); Eu-W1024-labeled Anti-Phosphotyrosine Antibody (PT66) (Perkin Elmer, Cat. No. AD0068); 10×Detection Buffer (Perkin Elmer, Cat. No. CR97-100); HER2 Kinase (Carna Biosciences, Cat. No. 08-016); EGFR kinase (Carna Biosciences, Cat. No. 08-115); HEPES (GIBCO, Cat. No. 15630-080); EGTA (Sigma, Cat. No. 03777-10G); EDTA (Sigma, Cat. No. EDS-100G); MgCl2 (Sigma, Cat. No. 63069-100ML); DTT (Sigma, Cat. No. 43816-10ML); Tween-20 (Sigma, Cat. No. P7949-100ML); DMSO (Life Science, Cat. No. 0231-500ML); 384-well plates (Perkin Elmer, Cat. No. 607290); multifunctional plate reader (Perkin Elmer, Cat. No. Envision)
Preparation of compound solution: The assay compound was dissolved in DMSO to form a 10 mM stock solution. Prior to use, the compound was diluted to 0.25 mM in DMSO (100 times the final concentration of the diluent) and then subjected to a 3-fold concentration gradient dilution to obtain a total of 11 concentrations. The solution was diluted with buffer to a diluent with 4× the final concentration when the drug was added.
HER2 kinase assay: buffer was prepared, and 40 nM 4× HER2 kinase solution, 40 μM 4× ATP solution, and 400 nM 4×ULight™-labeled Ploy GT Peptide substrate solution were prepared using the buffer. After the preparation was completed, the enzyme was mixed with different concentrations of compounds pre-prepared by dilution, and the mixture was left to stand at room temperature for 5 min. Each concentration was performed in duplicate. The corresponding substrate and ATP were added and the mixture was reacted at room temperature for 120 minutes (with negative and positive controls). After completion of the reaction, PT66 detection antibody was added. The mixture was incubated at room temperature for 60 minutes, and then detected by Envision.
Data Calculation: the reading of well and inhibition rate were calculated using Excel, wherein reading of well=10000*(well EU665 value)/(well EU615 value), and inhibition rate=[(reading of positive control well−reading of assay well)/(reading of positive control well−reading of negative control well)]*100%. Compound concentrations and corresponding inhibition rates were input into GraphPad Prism for processing to calculate IC50 values.

T1 sequence (P04626 23-1255): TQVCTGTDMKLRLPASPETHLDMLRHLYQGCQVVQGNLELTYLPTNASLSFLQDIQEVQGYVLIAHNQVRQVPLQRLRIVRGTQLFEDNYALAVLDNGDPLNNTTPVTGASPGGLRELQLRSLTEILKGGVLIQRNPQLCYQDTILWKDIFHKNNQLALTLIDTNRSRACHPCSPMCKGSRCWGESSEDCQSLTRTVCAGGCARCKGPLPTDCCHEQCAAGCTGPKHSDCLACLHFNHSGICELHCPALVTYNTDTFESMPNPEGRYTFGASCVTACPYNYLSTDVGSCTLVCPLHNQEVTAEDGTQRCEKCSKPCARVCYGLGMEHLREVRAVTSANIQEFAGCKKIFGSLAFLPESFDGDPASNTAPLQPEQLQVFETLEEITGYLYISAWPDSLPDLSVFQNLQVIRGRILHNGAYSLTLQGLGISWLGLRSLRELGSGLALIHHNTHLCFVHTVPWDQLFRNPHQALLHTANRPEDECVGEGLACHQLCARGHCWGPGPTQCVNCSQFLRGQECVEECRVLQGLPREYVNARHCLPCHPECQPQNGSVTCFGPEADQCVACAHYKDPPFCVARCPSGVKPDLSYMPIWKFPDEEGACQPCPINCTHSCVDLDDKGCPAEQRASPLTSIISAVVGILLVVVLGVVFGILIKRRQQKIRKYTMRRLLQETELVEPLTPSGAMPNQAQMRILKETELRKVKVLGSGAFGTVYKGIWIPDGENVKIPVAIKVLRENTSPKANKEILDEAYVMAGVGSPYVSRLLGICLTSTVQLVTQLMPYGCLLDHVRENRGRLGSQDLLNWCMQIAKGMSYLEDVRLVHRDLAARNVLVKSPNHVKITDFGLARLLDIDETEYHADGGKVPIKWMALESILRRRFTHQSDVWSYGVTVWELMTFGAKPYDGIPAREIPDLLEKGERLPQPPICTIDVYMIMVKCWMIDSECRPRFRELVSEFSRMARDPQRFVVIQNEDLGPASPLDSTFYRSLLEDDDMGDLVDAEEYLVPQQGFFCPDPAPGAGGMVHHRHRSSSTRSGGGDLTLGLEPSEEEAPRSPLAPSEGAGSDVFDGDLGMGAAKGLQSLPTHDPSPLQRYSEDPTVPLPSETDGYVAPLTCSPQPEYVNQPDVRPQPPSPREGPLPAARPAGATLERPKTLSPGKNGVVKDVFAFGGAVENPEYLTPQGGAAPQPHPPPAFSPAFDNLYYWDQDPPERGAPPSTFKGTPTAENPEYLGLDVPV

IC50: 0.1 to 1 µM
Structure (SMILES): COc1c(NC(=O)/C=C/CN(C)C)ccc2ncnc(Nc3cccc(Cl)c3F)c12 [Example 1, (E)-N-(4-((3-chloro-2-fluorophenyl)amino)-5-methoxyquinazolin-6-yl)-4-(dimethylamino)but-2-enamide]
